# Test system: pressor responses to AII
# Test: Inhibition of AII induced blood pressure increase in rats
# Assay type: in vivo
# Conditions: Rattus norvegicus, po, test compound 0.3 mg/kg orally, AII 30 ng/kg i.v., pressor responses measured at set times
# Description: [Inhibition of All induced Blood Pressure Increase]
# Carotid artery and left femoral vein in rats were cannulated. Next day, the carotid catheter was connected to a pressure transducer for monitoring arterial blood pressure. After the measurement of AII (30 ng/kg, i.v.) pressor responses, test compounds (0.3 mg/kg) were administered orally.
# Thereafter, the pressor responses to AII at set times were measured and the inhibition percent was calculated according to the comparison of the pressor responses.
row,Compound,inhibition in vivo at 0.3 mg/kg [%]
1,"CCOC(=O)/C=C1\CC(C(C)C)CCc2nc(CC)n(Cc3ccc(-c4ccccc4-c4nnn[nH]4)cc3)c21 (stereo not shown) [Compound 7, 2-Ethyl-6-isopropyl-8-ethoxycarbonylmethylidene-1-[(2'-(1H-tetrazole-5yl)biphenyl-4-yl)methyl]-4,5,6,7-tetrahydro-cycloheptimidazole]",≥ 70
2,"CCc1nc2c(n1Cc1ccc(-c3ccccc3-c3nnn[nH]3)cc1)/C(=C/C(=O)OC(C)OC(=O)OC(C)C)CC(C(C)C)CC2 (stereo not shown) [Compound 31, 2-Ethyl-6-isopropyl-8-(1-isopropoxycarbonyloxy)ethoxycarbonylmethylidene-1-[(2'-(1H-tetrazole-5-yl)biphenyl-4-yl)methyl]-4,5,6,7-tetrahydro cycloheptimidazole]",≥ 70
3,"CCCc1nc2c(n1Cc1ccc(-c3ccccc3-c3nnn[nH]3)cc1)/C(=C/C(=O)OC(C)OC(=O)OC(C)C)CCCC2 (stereo not shown) [Compound 29, 2-Propyl-8-(1-isopropoxycarbonyloxy)ethoxycarbonylmethylidene-1-[(2'-(1H-tetrazole-5-yl)biphenyl-4-yl)methyl]-4,5,6,7-tetrahydro-cycloheptimidazole]",≥ 70
4,CCCc1nc2c(n1Cc1ccc(-c3ccccc3-c3nnn[nH]3)cc1)/C(=C/C(=O)OC(C)OC(=O)OC1CCCCC1)CCCC2 (stereo not shown) [Compound 28],≥ 70
5,"CCCc1nc2c(n1Cc1ccc(-c3ccccc3-c3nnn[nH]3)cc1)/C(=C/C(=O)O)CCCC2 [Compound 17, 2-Propyl-8-carboxymethylidene-1-[(2'-(1H-tetrazole-5-yl)biphenyl-4-yl)methyl]-4,5,6,7-tetrahydro-cycloheptimidazole]",50 to 70
6,"CCCc1nc2c(n1Cc1ccc(-c3ccccc3-c3nnn[nH]3)cc1)/C(=C/C(=O)OC(C)OC(=O)OC(C)C)CC(C(C)C)CC2 (stereo not shown) [Compound 33, 2-Propyl-6-isopropyl-8-(1-isopropoxycarbonyloxy)ethoxycarbonylmethylidene-1-[(2'-(1H-tetrazole-5-yl)biphenyl-4-yl)methyl]-4,5,6,7-tetrahydro-cycloheptimidazole]",≥ 70
7,"CCCc1nc2c(n1Cc1ccc(-c3ccccc3-c3nnn[nH]3)cc1)/C(=C/C(=O)OCC)CCCC2 [Compound 4, 2-Propyl-8-ethoxycarbonylmethylidene-1-[(2'-(1H-tetrazole-5-yl)biphenyl-4-yl)methyl]-4,5,6,7-tetrahydro-cycloheptimidazole]",50 to 70

# Biological target: T1, Angiotensin II receptor (Oryctolagus cuniculus, UniProt P34976)
# T1 construct: Rabbit thoracic aorta is isolated, contracted by angiotensin II; from tissue; host or cells: rabbit thoracic aorta
# T1 sequence (P34976 1-359): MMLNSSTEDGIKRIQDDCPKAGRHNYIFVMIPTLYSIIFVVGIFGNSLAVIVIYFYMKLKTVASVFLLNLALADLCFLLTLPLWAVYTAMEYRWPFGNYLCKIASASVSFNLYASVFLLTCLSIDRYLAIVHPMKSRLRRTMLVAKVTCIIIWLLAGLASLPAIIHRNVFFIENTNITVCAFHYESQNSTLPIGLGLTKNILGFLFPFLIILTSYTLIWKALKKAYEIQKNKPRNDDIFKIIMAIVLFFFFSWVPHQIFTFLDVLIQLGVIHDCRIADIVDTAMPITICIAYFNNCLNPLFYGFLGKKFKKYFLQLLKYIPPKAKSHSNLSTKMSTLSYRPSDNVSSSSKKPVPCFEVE
# Test: AII receptor antagonistic activity: inhibition of angiotensin II induced contraction of isolated rabbit thoracic aorta
# Assay type: cell-based
# Conditions: isolated rabbit thoracic aorta contracted by angiotensin II; Van Rossum method; values shown in parenthesis
# Description: [AII receptor antagonistic activity]
# Angiotensin II receptor activity experiments are carried out according to P. C. Wong et al. (Hypertension 15, 823 (1990)).
# Rabbit thoracic aorta is isolated, contracted by angiotensin II. The inhibition of contraction by the compound of formula (1) is expressed as pA2 from dose-response curve (Schild, Brit. J. Pharmacol. 14, 48 (1959)) or expressed as pD2 ' according to the method of J. M. Van Rossum (Arch. Intern. Pharmacodyn., 143, 229 (1963)).
row,Compound,pD2'
1,"CCc1nc2c(n1Cc1ccc(-c3ccccc3-c3nnn[nH]3)cc1)/C(=C/C(=O)O)CC(C(C)C)CC2 (stereo not shown) [Compound 20, 2-Ethyl-6-isopropyl-8-carboxymethylidene-1-[(2'-(1H-tetrazole-5-yl)biphenyl-4-yl)methyl]-4,5,6,7-tetrahydro-cycloheptimidazole]",9.04
2,CCc1nc2c(n1Cc1ccc(-c3ccccc3-c3nnn[nH]3)cc1)/C(=C/C(=O)OC(C)OC(=O)OC1CCCCC1)CCCC2 (stereo not shown) [Compound 35],8.12
3,"CCc1nc2c(n1Cc1ccc(-c3ccccc3-c3nnn[nH]3)cc1)/C(=C/C(=O)OC(C)OC(=O)OC(C)C)CCCC2 (stereo not shown) [Compound 30, 2-Ethyl-8-(1-isopropoxycarbonyloxy)ethoxycarbonylmethylidene-1-[(2'-(1H-tetrazole-5-yl)biphenyl-4-yl)methyl]-4,5,6,7-tetrahydro-cycloheptimidazole]",8.11
4,"CCOC(=O)/C=C1\CCCCc2nc(CC)n(Cc3ccc(-c4ccccc4-c4nnn[nH]4)cc3)c21 [Compound 3, 2-Ethyl-8-ethoxycarbonylmethylidene-1-[(2'-(1H-tetrazole-5-yl)biphenyl-4-yl)methyl]-4,5,6,7-tetrahydro-cycloheptimidazole]",9.00
5,"CCc1nc2c(n1Cc1ccc(-n3cccc3-c3nnn[nH]3)cc1)/C(=C/C(=O)O)CCCC2 [Compound 23, 2-Ethyl-8-carboxymethylidene-1-[4-(1H-pyrrole-2-(1H-tetrazole-5-yl)phenyl)methyl]-4,5,6,7-tetrahydro-cycloheptimidazole]",9.60
6,"CCCc1nc2c(n1Cc1ccc(-c3ccccc3-c3nnn[nH]3)cc1)/C(=C/C(=O)OC(C)OC(=O)OC(C)C)CCCC2 (stereo not shown) [Compound 29, 2-Propyl-8-(1-isopropoxycarbonyloxy)ethoxycarbonylmethylidene-1-[(2'-(1H-tetrazole-5-yl)biphenyl-4-yl)methyl]-4,5,6,7-tetrahydro-cycloheptimidazole]",8.18
7,"CCCc1nc2c(n1Cc1ccc(-c3ccccc3-c3nnn[nH]3)cc1)/C(=C/C(=O)O)CCCC2 [Compound 17, 2-Propyl-8-carboxymethylidene-1-[(2'-(1H-tetrazole-5-yl)biphenyl-4-yl)methyl]-4,5,6,7-tetrahydro-cycloheptimidazole]",9.86
8,"Cc1nc2c(n1Cc1ccc(-c3ccccc3-c3nnn[nH]3)cc1)/C(=C/C(=O)O)CCCC2 [Compound 15, 2-Methyl-8-carboxymethylidene-1-[(2'-(1H-tetrazole-5-yl)biphenyl-4-yl)methyl]-4,5,6,7-tetrahydro-cycloheptimidazole]",9.91
9,"CCCCc1nc2c(n1Cc1ccc(-c3ccccc3-c3nnn[nH]3)cc1)/C(=C/C(=O)O)CC(C(C)C)CC2 (stereo not shown) [Compound 25, 2-Butyl-6-isopropyl-8-carboxymethylidene-1-[(2'-(1H-tetrazole-5-yl)biphenyl-4-yl)methyl]-4,5,6,7-tetrahydro-cycloheptimidazole]",8.88
10,"CCCc1nc2c(n1Cc1ccc(-c3ccccc3-c3nnn[nH]3)cc1)/C(=C/C(=O)OCC)CCCC2 [Compound 4, 2-Propyl-8-ethoxycarbonylmethylidene-1-[(2'-(1H-tetrazole-5-yl)biphenyl-4-yl)methyl]-4,5,6,7-tetrahydro-cycloheptimidazole]",8.40
11,"CCc1nc2c(n1Cc1ccc(-n3cccc3-c3nnn[nH]3)cc1)/C(=C/C(=O)OC(C)OC(=O)OC(C)C)CCCC2 (stereo not shown) [Compound 32, 2-Ethyl-8-(1-isopropoxycarbonyloxy)ethoxycarbonylmethylidene-[4-(1H-pyrrole-2-(1H-tetrazole-5-yl)phenyl)methyl]-4,5,6,7-tetrahydro-cycloheptimidazole]",9.38
12,"CCOC(=O)OC(C)OC(=O)/C=C1\CCCCc2nc(CC)n(Cc3ccc(-c4ccccc4-c4nnn[nH]4)cc3)c21 (stereo not shown) [Compound 36, 2-Ethyl-8-(1-ethoxycarbonyloxy)ethoxycarbonylmethylidene-1-[(2'-(1H -tetrazole-5-yl)biphenyl-4yl)methyl]-4,5,6,7-tetrahydro-cycloheptimidazole]",8.59
13,"CCCc1nc2c(n1Cc1ccc(-c3ccccc3-c3nnn[nH]3)cc1)/C(=C/C(=O)OC(C)OC(=O)OCC)CCCC2 (stereo not shown) [Compound 27, 2-Propyl-8-(1-ethoxycarbonyloxy)ethoxycarbonylmethylidene-1-[(2'-(1H-tetrazole-5-yl)biphenyl-4-yl)methyl]-4,5,6,7-tetrahydro-cycloheptimidazole]",8.45
14,"CCCCc1nc2c(n1Cc1ccc(-c3ccccc3-c3nnn[nH]3)cc1)/C(=C/C(=O)O)CCCC2 [Compound 18, 2-Butyl-8-carboxymethylidene-1-[(2'-(1H-tetrazole-5-yl)biphenyl-4-yl)methyl]-4,5,6,7-tetrahydro-cycloheptimidazole]",9.03
15,"CCCc1nc2c(n1Cc1ccc(-c3ccccc3-c3nnn[nH]3)cc1)/C(=C/C(=O)O)CC(C(C)C)CC2 (stereo not shown) [Compound 21, 2-Propyl-6-isopropyl-8-carboxymethylidene-1-[(2'-(1H-tetrazole-5-yl)biphenyl-4-yl)methyl]-4,5,6,7-tetrahydro-cycloheptimidazole]",9.08

# Same assay, conditions: isolated rabbit thoracic aorta contracted by angiotensin II; from dose-response curve (Schild); read-out: pA2 (converted)
row,Compound,Kb [nM]
1,"CCCCc1nc2c(n1Cc1ccc(-n3cccc3-c3nn[nH]n3)cc1)/C(=C/C(=O)O)CCCC2 [Compound 26, 2-Butyl-8-carboxymethylidene-1-[4-(1H-pyrrole-2-(1H-tetrazole-5-yl)phenyl)methyl]-4,5,6,7-tetrahydro-cycloheptimidazole]",0.501
2,"CCOC(=O)/C=C1\CCCCc2nc(C)n(Cc3ccc(-c4ccccc4-c4nnn[nH]4)cc3)c21 [Compound 2, 2-Methyl-8-ethoxycarbonylmethylidene-1-[(2'-(1H-tetrazole-5-yl)biphenyl-4-yl)methyl]-4,5,6,7-tetrahydro-cycloheptimidazole]",36.3
3,"CCCCCc1nc2c(n1Cc1ccc(-c3ccccc3-c3nn[nH]n3)cc1)/C(=C/C(=O)O)CCCC2 [Compound 19, 2-Pentyl-8-carboxymethylidene-1-[(2'-(1H-tetrazole-5-yl)biphenyl-4-yl)methyl]-4,5,6,7-tetrahydro-cycloheptimidazole]",1.51
4,"CCCc1nc2c(n1Cc1ccc(-c3ccccc3-c3nn[nH]n3)cc1)CCCC/C2=C\C(=O)O [Compound 14, 2-Propyl-4-carboxymethylidene-1-[(2'-(1H-tetrazole-5-yl)biphenyl-4-yl)methyl]-5,6,7,8-tetrahydro-cycloheptimidazole]",0.158
5,"Cc1nc2c(n1Cc1ccc(-n3cccc3-c3nn[nH]n3)cc1)/C(=C/C(=O)O)CCCC2 [Compound 22, 2-Methyl-8-carboxymethylidene-1-[4-(1H-pyrrole-2-(1H-tetrazole-5-yl)phenyl)methyl]-4,5,6,7-tetrahydro-cycloheptimidazole]",1.26
6,"CCCc1nc2c(n1Cc1ccc(-n3cccc3-c3nn[nH]n3)cc1)/C(=C/C(=O)O)CCCC2 [Compound 24, 2-Propyl-8-carboxymethylidene-1-[4-(1H-pyrrole-2-(1H-tetrazole-5-yl)phenyl)methyl]-4,5,6,7-tetrahydro-cycloheptimidazole]",0.158

# Reference: US5527815A, “Carboxymethylidenecycloheptimidazole derivatives, method of manufacturing the same and therapeutic agents containing these compounds” (Kotobuki Seiyaku Co., Ltd., priority 1993, dated 1996)
